According to patent US20110021565A1, “PIPERIDINE DERIVATIVES AS NK3 ANTAGONISTS” (priority 2007, published 2011):
Where a name gives a salt, the structure may show the parent alone. Read-outs that look alike come from different tables or passages of the source.

Target: T1, recombinant human NK3 receptor (Homo sapiens, UniProt P29371)
T1 construct: expressed in transfected cells; host or cells: HEK293 cells, transient expression; membrane preparation
T1 sequence (P29371 1-465): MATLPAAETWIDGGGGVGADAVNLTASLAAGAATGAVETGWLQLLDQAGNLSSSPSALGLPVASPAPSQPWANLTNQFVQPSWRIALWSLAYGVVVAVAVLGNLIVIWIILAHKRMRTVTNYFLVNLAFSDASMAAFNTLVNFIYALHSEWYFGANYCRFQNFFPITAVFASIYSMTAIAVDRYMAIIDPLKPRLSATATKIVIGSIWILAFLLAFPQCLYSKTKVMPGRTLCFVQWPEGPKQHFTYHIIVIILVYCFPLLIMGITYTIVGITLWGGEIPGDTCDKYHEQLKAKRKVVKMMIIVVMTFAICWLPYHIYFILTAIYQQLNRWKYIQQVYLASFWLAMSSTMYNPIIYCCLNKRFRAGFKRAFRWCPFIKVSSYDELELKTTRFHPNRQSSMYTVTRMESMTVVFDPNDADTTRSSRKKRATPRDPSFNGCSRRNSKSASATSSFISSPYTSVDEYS
Assay: [3H]SR142801 competition binding assay
In short: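 Membranes from HEK293 cells transiently expressing the receptor (5 μg protein/well) incubated 75 min at RT with [3H]SR142801 at its KD and 10 compound concentrations (0.0003-10 μM), in pH 7.4 Tris buffer with MnCl2, phosphoramidon and BSA. Nonspecific binding defined with 10 μM SB222200; bound radioactivity counted after filtration. Ki from IC50 via Cheng-Prusoff; duplicates.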

[1] = [3H]SR142801, membranes of HEK293 cells transiently expressing recombinant human NK3 receptor, read-out: hNK3 Ki
[2] = representative compounds, [3H]SR142801, HEK293 membranes, human NK3 receptor, read-out: Ki NK3 h

SMILES	Ki [1]	Ki [2]
CN(Cc1ccc(Cl)c(C(F)(F)F)c1)C(=O)C(C)(CCN1CCC(NS(C)(=O)=O)CC1)c1ccc(Cl)c(Cl)c1 (stereo not drawn) [Example 8, N-(4-Chloro-3-trifluoromethyl-benzyl)-2-(3,4-dichloro-phenyl)-4-(4-methanesulfonyl-amino-piperidin-1-yl)-2,N-dimethyl-butyramide]	22.6 nM	
CC(=O)NC1CCN(CCC(C)(C(=O)N[C@@H](CO)c2ccc(F)cc2)c2ccc(Cl)c(Cl)c2)CC1 (stereo partly drawn) [Example 160, 4-(4-Acetylamino-piperidin-1-yl)-2-(3,4-dichloro-phenyl)-N-[(R)-1-(4-fluoro-phenyl)-2-hydroxy-ethyl]-2-methyl-butyramide]	200 nM	
CC(c1ccc(F)c(C(F)(F)F)c1)N(C)C(=O)C(C)(CCN1CCC(N2CCCC2=O)CC1)c1ccc(Cl)c(Cl)c1 (stereo not drawn) [Example 126, 2-(3,4-Dichloro-phenyl)-N-[1-(4-fluoro-3-trifluoromethyl-phenyl)-ethyl]-2,N-dimethyl-4-[4-(2-oxo-pyrrolidin-1-yl)-piperidin-1-yl]-butyramide]	30.3 nM	
CN(Cc1ccc(Cl)cc1)C(=O)C(F)(CCN1CCC(NS(C)(=O)=O)CC1)c1ccc(Cl)c(Cl)c1 (stereo not drawn) [Example 62, N-(4-Chloro-benzyl)-2-(3,4-dichloro-phenyl)-2-fluoro-4-(4-methanesulfonyl-amino-piperidin-1-yl)-N-methyl-butyramide]	105 nM	
COc1cccc(CN(C)C(=O)C(C)(CCN2CCC(NS(C)(=O)=O)CC2)c2ccc(Cl)c(Cl)c2)c1 (stereo not drawn) [Example 17, 2-(3,4-Dichloro-phenyl)-4-(4-methanesulfonyl-amino-piperidin-1-yl)-N-(3-methoxy-benzyl)-2,N-dimethyl-butyramide]	213 nM	
CC[C@@H](NC(=O)C(C)(CCN1CCC(N(CC)C(C)=O)CC1)c1ccc(Cl)c(Cl)c1)c1ccccc1 (stereo partly drawn) [Example 169, 4-[4-(Acetyl-ethyl-amino)-piperidin-1-yl]-2-(3,4-dichloro-phenyl)-2-methyl-N-((R)-1-phenyl-propyl)-butyramide]	57.6 nM	
Cc1ccc(CN(C)C(=O)C(C)(CCN2CCC(NS(C)(=O)=O)CC2)c2ccc(Cl)c(Cl)c2)cc1 (stereo not drawn) [Example 6, 2-(3,4-Dichloro-phenyl)-4-(4-methanesulfonyl-amino-piperidin-1-yl)-2,N-dimethyl-N-(4-methyl-benzyl)-butyramide]	77.4 nM	
CN(Cc1ccc(C(F)(F)F)c(F)c1)C(=O)C(C)(CCN1CCC(NS(C)(=O)=O)CC1)c1ccc(Cl)c(Cl)c1 (single isomer, unassigned) [Example 124, (R or S)-2-(3,4-Dichloro-phenyl)-N-(3-fluoro-4-trifluoromethyl-benzyl)-4-(4-methanesulfonylamino-piperidin-1-yl)-2,N-dimethyl-butyramide]	18.8 nM	
CCN(C1CCN(CCC(C)(C(=O)N[C@@H](CO)c2ccc(Cl)c(Cl)c2)c2ccc(Cl)c(Cl)c2)CC1)S(C)(=O)=O (single isomer, unassigned; diastereoisomer 1) [Example 79, 2-(3,4-Dichloro-phenyl)-N-[1-(3,4-dichloro-phenyl)-2-hydroxy-ethyl]-4-[4-(ethyl-methanesulfonyl-amino)-piperidin-1-yl]-2-methyl-butyramide; diastereoisomer 1]	1.5 nM	1.5 nM
CCN(C1CCN(CCC(C)(C(=O)N(C)Cc2ccc(C)cc2)c2ccc(Cl)c(Cl)c2)CC1)S(C)(=O)=O (stereo not drawn) [Example 77, 2-(3,4-Dichloro-phenyl)-4-[4-(ethyl-methanesulfonyl-amino)-piperidin-1-yl]-2,N-dimethyl-N-(4-methyl-benzyl)-butyramide]	3.1 nM	3.1 nM
COCCN(C(C)=O)C1CCN(CCC(C)(C(=O)N[C@@H](CO)c2ccc(Cl)cc2)c2ccc(Cl)c(Cl)c2)CC1 (stereo in doubt) [Example 147, 4-{4-[Acetyl-(2-methoxy-ethyl)-amino]-piperidin-1-yl}-N-[1-(4-chloro-phenyl)-2-hydroxy-ethyl]-2-(3,4-dichloro-phenyl)-2-methyl-butyramide]	382 nM	
CC(CCN1CCC(N2CCCC2=O)CC1)(C(=O)NC1(c2ccccc2)CC1)c1ccc(Cl)c(Cl)c1 (stereo not drawn) [Example 93, 2-(3,4-Dichlorophenyl)-2-methyl-4-[4-(2-oxo-pyrrolidin-1-yl)-piperidin-1-yl]-N-(1-phenyl-cyclopropyl)-butyramide]	184 nM	
CC(CCN1CCC(N2CCCC2=O)CC1)(C(=O)N[C@@H](CO)c1ccc(F)cc1)c1ccc(Cl)c(Cl)c1 (single isomer, unassigned) [Example 130, 2-(3,4-Dichloro-phenyl)-N-[(R)-1-(4-fluoro-phenyl)-2-hydroxy-ethyl]-2-(S or R) methyl-4-[4-(2-oxo-pyrrolidin-1-yl)-piperidin-1-yl]-butyramide]	101 nM	
CN(Cc1ccc(Cl)cc1)C(=O)C(CCN1CCC(N2CCCC2=O)CC1)c1ccc(Cl)cc1Cl (stereo not drawn) [Example 112, N-(4-Chloro-benzyl)-2-(2,4-dichloro-phenyl)-N-methyl-4-[4-(2-oxo-pyrrolidin-1-yl)-piperidin-1-yl]-butyramide]	128 nM	
CC(C)(NC(=O)C(C)(CCN1CCC(N2CCCC2=O)CC1)c1ccc(Cl)c(Cl)c1)c1ccccc1 (stereo not drawn) [Example 92, 2-(3,4-Dichloro-phenyl)-2-methyl-N-(1-methyl-1-phenyl-ethyl)-4-[4-(2-oxo-pyrrolidin-1-yl)-piperidin-1-yl]-butyramide]	991 nM	
CC(=O)N(C)C1CCN(CCC(C)(C(=O)NC(c2ccc(F)cc2)C(F)(F)F)c2ccc(Cl)c(Cl)c2)CC1 (stereo not drawn) [Example 135, 4-[4-(Acetyl-methyl-amino)-piperidin-1-yl]-2-(3,4-dichloro-phenyl)-2-methyl-N-[2,2,2-trifluoro-1-(4-fluoro-phenyl)-ethyl]-butyramide]	12.6 nM	
COCCN(C(C)=O)C1CCN(CCC(C)(C(=O)N[C@@H](CO)c2ccc(Cl)c(Cl)c2)c2ccc(Cl)c(Cl)c2)CC1 (stereo partly drawn) [Example 148, 4-{4-[Acetyl-(2-methoxy-ethyl)-amino]-piperidin-1-yl}-2-(3,4-dichloro-phenyl)-N-[1-(3,4-dichloro-phenyl)-2-hydroxy-ethyl]-2-methyl-butyramide (diastreoisomer 1)]	3.8 nM	3.8 nM
CC(CCN1CCC(N2CCCC2=O)CC1)(C(=O)N[C@@H](CO)c1ccc(F)cc1)c1ccc(Cl)c(Cl)c1 (single isomer, unassigned) [Example 129, 2-(3,4-Dichloro-phenyl)-N-[(R)-1-(4-fluoro-phenyl)-2-hydroxy-ethyl]-2-(R or S) methyl-4-[4-(2-oxo-pyrrolidin-1-yl)-piperidin-1-yl]-butyramide]	8.2 nM	8.2 nM
CC(=O)N(C)C1CCN(CCC(C)(C(=O)N(C)Cc2ccc(F)c(C(F)(F)F)c2)c2ccc(Cl)c(Cl)c2)CC1 (single isomer, unassigned) [Example 121, (S or R)-4-[4-(Acetyl-methyl-amino)-piperidin-1-yl]-2-(3,4-dichloro-phenyl)-N-(4-fluoro-3-trifluoromethyl-benzyl)-2,N-dimethyl-butyramide]	173 nM	
CN(Cc1ccc(F)c(C(F)(F)F)c1)C(=O)C(C)(CCN1CCC(N2CCCC2=O)CC1)c1ccc(Cl)c(Cl)c1 (single isomer, unassigned) [Example 118, (S or R)-2-(3,4-Dichloro-phenyl)-N-(4-fluoro-3-trifluoromethyl-benzyl)-2,N-dimethyl-4-[4-(2-oxo-pyrrolidin-1-yl)-piperidin-1-yl]-butyramide; hydrochloride]	171 nM	
CN(Cc1ccc(F)c(C(F)(F)F)c1)C(=O)C(C)(CCN1CCC(N2CCCC2=O)CC1)c1ccc(Cl)c(Cl)c1 (single isomer, unassigned) [Example 119, (R or S)-2-(3,4-Dichloro-phenyl)-N-(4-fluoro-3-trifluoromethyl-benzyl)-2,N-dimethyl-4-[4-(2-oxo-pyrrolidin-1-yl)-piperidin-1-yl]-butyramide; hydrochloride]	0.8 nM	0.8 nM
Cc1ccc(CN(C)C(=O)C(CCN2CCC(NS(C)(=O)=O)CC2)c2ccc(Cl)c(Cl)c2)cc1 (stereo not drawn) [Example 38, 2-(3,4-Dichloro-phenyl)-4-(4-methanesulfonyl-amino-piperidin-1-yl)-N-methyl-N-(4-methyl-benzyl)-butyramide]	92.9 nM	
CN(Cc1ccc(Cl)c(Cl)c1)C(=O)C(F)(CCN1CCC(N(C)S(C)(=O)=O)CC1)c1ccc(Cl)c(Cl)c1 (stereo not drawn) [Example 56, N-(3,4-Dichloro-benzyl)-2-(3,4-dichloro-phenyl)-2-fluoro-4-[4-(methanesulfonyl-methyl-amino)-piperidin-1-yl]-N-methyl-butyramide]	22.8 nM	
CCN(C1CCN(CCC(C)(C(=O)N(C)Cc2ccc(F)c(C(F)(F)F)c2)c2ccc(Cl)c(Cl)c2)CC1)S(C)(=O)=O (stereo not drawn) [Example 74, 2-(3,4-Dichloro-phenyl)-4-[4-(ethyl-methanesulfonyl-amino)-piperidin-1-yl]-N-(4-fluoro-3-trifluoromethyl-benzyl)-2,N-dimethyl-butyramide]	1.3 nM	1.3 nM
